Reference: patent US12498382B2, “Biomarkers for vitiligo” (INCYTE CORPORATION, priority 2019, dated 2025)

Tested on: HaCaT cells
Assay: Concentrations of inflammatory mediators produced by HaCaT cells stimulated with TNFα and IFNγ in presence/absence of JAK inhibitors (ProCarta)
Assay type: cell-based, human
Method in brief: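 Mediator levels (pg/mL) in culture media quantified by multiplex Luminex bead assay against standard curves. Media collected after 24 h at 37 °C from HaCaT cells exposed to 25 ng/mL each of IFNγ and TNFα following 15 min drug pre-incubation; drug final concentrations 25–200 nM (25, 50, 100, 200 nM).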

[1] = TNFα+IFNγ 25 ng/mL each, drug conc. 1st of 4 rows (cell not shown; prob. 25 nM)
[2] = TNFα+IFNγ 25 ng/mL each, drug conc. 2nd of 4 rows (cell not shown; prob. 50 nM)
[3] = TNFα+IFNγ 25 ng/mL each, drug conc. 3rd of 4 rows (cell not shown; prob. 100 nM)
[4] = TNFα+IFNγ 25 ng/mL each, drug conc. 4th of 4 rows (cell not shown; prob. 200 nM)
[5] = drug present, concentration not given

Compound: C[C@@H](O)c1nc2cnc3ccsc3c2n1[C@H]1CC[C@H](CC#N)OC1 [Cpd D, ((2R,5S)-5-{2-[(1R)-1-hydroxyethyl]-1H-imidazo[4,5-d]thieno[3,2-b]pyridin-1-yl}tetrahydro-2H-pyran-2-yl)acetonitrile]
- IFN gamma concentration [1]: 24180.78 ± 2901.94 pg/mL
- IL1RA concentration [1]: 5760.33 ± 367.09 pg/mL
- IL1 alpha concentration [1]: 6.8 ± 0.39 pg/mL
- IL1 beta concentration [1]: 8.92 ± 0.42 pg/mL
- IL2 concentration [1]: 31.46 ± 1.56 pg/mL
- IL4 concentration [1]: 7.2 ± 1.25 pg/mL
- IL5 concentration [1]: 26.66 ± 1.72 pg/mL
- IL6 concentration [1]: 743.07 ± 36.3 pg/mL
- IL7 concentration [1]: 2.16 ± 0.11 pg/mL
- IL8 concentration [1]: 2820.21 ± 159.05 pg/mL
- IL9 concentration [1]: 3.7 ± 0^ pg/mL
- IL10 concentration [1]: 0.76 ± 0.08 pg/mL
- IL12p70 concentration [1]: 1.88 ± 0.19 pg/mL
- IL13 concentration [1]: 2.67 ± 0.24 pg/mL
- IL15 concentration [1]: 4.2 ± 0.86 pg/mL
- IL17A concentration [1]: 3.84 ± 0.3 pg/mL
- IL18 concentration [1]: 159.38 ± 4.31 pg/mL
- IL21 concentration [1]: 2.71 ± 0.18 pg/mL
- IL22 concentration [1]: 7.83 ± 0.75 pg/mL
- IL23 concentration [1]: 7.43 ± 0 pg/mL
- IL27 concentration [1]: 7.42 ± 0.9 pg/mL
- IL31 concentration [1]: 2.97 ± 0.37 pg/mL
- IP-10/CXCL10 concentration [1]: 3903.67 ± 366.97 pg/mL
- LIF concentration [1]: 65.71 ± 2.6 pg/mL
- MCP1 concentration [1]: 21968.74 ± 4662.32 pg/mL
- MIP1 alpha concentration [1]: 102.06 ± 4.18 pg/mL
- MIP1 beta concentration [1]: 313.64 ± 8.9 pg/mL
- PDGF-BB concentration [1]: 4.23 ± 0.18 pg/mL
- PIGF-1 concentration [1]: 59.56 ± 3.2 pg/mL
- RANTES concentration [1]: 237.57 ± 17.46 pg/mL
- SCF concentration [1]: 4.18 ± 0.24 pg/mL
- SDF-1 alpha concentration [1]: 3456.41 ± 158.06 pg/mL
- TNF alpha concentration [1]: 8951.15 ± 870.67 pg/mL
- TNF beta concentration [1]: 4.62 ± 0.49 pg/mL
- VEGF-A concentration [1]: 1303.84 ± 56.86 pg/mL
- VEGF-D concentration [1]: 8.7 ± 0.52 pg/mL
- IFN gamma concentration [2]: 25506.14 ± 3960.86 pg/mL
- IL1RA concentration [2]: 5709.52 ± 391.3 pg/mL
- IL1 alpha concentration [2]: 6.76 ± 0.4 pg/mL
- IL1 beta concentration [2]: 8.82 ± 0.46 pg/mL
- IL2 concentration [2]: 29.16 ± 2.01 pg/mL
- IL4 concentration [2]: 5.9 ± 1.18 pg/mL
- IL5 concentration [2]: 28.49 ± 1.85 pg/mL
- IL6 concentration [2]: 698.04 ± 29.79 pg/mL
- IL7 concentration [2]: 2.14 ± 0.07 pg/mL
- IL8 concentration [2]: 2907.08 ± 193.16 pg/mL
- IL9 concentration [2]: 3.37 ± 0.33 pg/mL
- IL10 concentration [2]: 0.67 ± 0.07 pg/mL
- IL12p70 concentration [2]: 1.69 ± 0.19 pg/mL
- IL13 concentration [2]: 2.21 ± 0.27 pg/mL
- IL15 concentration [2]: 2.82 ± 0.72 pg/mL
- IL17A concentration [2]: 4.15 ± 0.57 pg/mL
- IL18 concentration [2]: 156.12 ± 3.47 pg/mL
- IL21 concentration [2]: 2.13 ± 0.39 pg/mL
- IL22 concentration [2]: 8.9 ± 0^ pg/mL
- IL23 concentration [2]: 7.43 ± 0 pg/mL
- IL27 concentration [2]: 5.51 ± 1.25 pg/mL
- IL31 concentration [2]: 3.43 ± 0.31 pg/mL
- IP-10/CXCL10 concentration [2]: 3998.62 ± 456.34 pg/mL
- LIF concentration [2]: 66.01 ± 3.21 pg/mL
- MCP1 concentration [2]: 25836.84 ± 10636.84 pg/mL
- MIP1 alpha concentration [2]: 96.35 ± 3.57 pg/mL
- MIP1 beta concentration [2]: 316.87 ± 10.18 pg/mL
- PDGF-BB concentration [2]: 4.36 ± 0.18 pg/mL
- PIGF-1 concentration [2]: 56.72 ± 3.48 pg/mL
- RANTES concentration [2]: 237.55 ± 21.78 pg/mL
- SCF concentration [2]: 4.1 ± 0.21 pg/mL
- SDF-1 alpha concentration [2]: 3450.69 ± 158.13 pg/mL
- TNF alpha concentration [2]: 9862.6 ± 1041^ pg/mL
- TNF beta concentration [2]: 5.03 ± 0.38 pg/mL
- VEGF-A concentration [2]: 1286.84 ± 61.29 pg/mL
- VEGF-D concentration [2]: 8.49 ± 0.72 pg/mL
- IFN gamma concentration [3]: 29392.77 ± 4832.25 pg/mL
- IL1RA concentration [3]: 5879.83 ± 410.09 pg/mL
- IL1 alpha concentration [3]: 6.92 ± 0.4 pg/mL
- IL1 beta concentration [3]: 8.63 ± 0.36 pg/mL
- IL2 concentration [3]: 29.23 ± 1.62 pg/mL
- IL4 concentration [3]: 5.13 ± 0.78 pg/mL
- IL5 concentration [3]: 27.43 ± 2.11 pg/mL
- IL6 concentration [3]: 703.99 ± 42.22 pg/mL
- IL7 concentration [3]: 2.15 ± 0.14 pg/mL
- IL8 concentration [3]: 3061.2 ± 217.26 pg/mL
- IL9 concentration [3]: 3.58 ± 0.24 pg/mL
- IL10 concentration [3]: 0.81 ± 0.07 pg/mL
- IL12p70 concentration [3]: 1.75 ± 0.22 pg/mL
- IL13 concentration [3]: 2.98 ± 0.4 pg/mL
- IL15 concentration [3]: 3.29 ± 0.9 pg/mL
- IL17A concentration [3]: 3.57 ± 0.45 pg/mL
- IL18 concentration [3]: 156.97 ± 5.2 pg/mL
- IL21 concentration [3]: 2.64 ± 0.24 pg/mL
- IL22 concentration [3]: 8.21 ± 0.69 pg/mL
- IL23 concentration [3]: 7.43 ± 0 pg/mL
- IL27 concentration [3]: 5.92 ± 0.88 pg/mL
- IL31 concentration [3]: 4.14 ± 0.48 pg/mL
- IP-10/CXCL10 concentration [3]: 4100.26 ± 502.48 pg/mL
- LIF concentration [3]: 70.02 ± 3.89 pg/mL
- MCP1 concentration [3]: 15200 ± 0 pg/mL
- MIP1 alpha concentration [3]: 96.22 ± 3.58 pg/mL
- MIP1 beta concentration [3]: 317.95 ± 8.1 pg/mL
- PDGF-BB concentration [3]: 4.71 ± 0.23 pg/mL
- PIGF-1 concentration [3]: 59.49 ± 3.52 pg/mL
- RANTES concentration [3]: 241.39 ± 22.79 pg/mL
- SCF concentration [3]: 4.29 ± 0.29 pg/mL
- SDF-1 alpha concentration [3]: 3563.68 ± 157.35 pg/mL
- TNF alpha concentration [3]: 10525.46 ± 1077.11 pg/mL
- TNF beta concentration [3]: 4.47 ± 0.37 pg/mL
- VEGF-A concentration [3]: 1346.72 ± 67.56 pg/mL
- VEGF-D concentration [3]: 9.64 ± 0.91 pg/mL
- IFN gamma concentration [4]: 26972.77 ± 4164.13 pg/mL
- IL1RA concentration [4]: 5450.17 ± 388.11 pg/mL
- IL1 alpha concentration [4]: 6.3 ± 0.35 pg/mL
- IL1 beta concentration [4]: 8.81 ± 0.35 pg/mL
- IL2 concentration [4]: 31.88 ± 1.61 pg/mL
- IL4 concentration [4]: 8.19 ± 1.39 pg/mL
- IL5 concentration [4]: 25.61 ± 1.98 pg/mL
- IL6 concentration [4]: 646.2 ± 32.46 pg/mL
- IL7 concentration [4]: 2.14 ± 0.12 pg/mL
- IL8 concentration [4]: 2893.51 ± 190.51 pg/mL
- IL9 concentration [4]: 4.44 ± 0.54 pg/mL
- IL10 concentration [4]: 0.84 ± 0.08 pg/mL
- IL12p70 concentration [4]: 1.7 ± 0.2 pg/mL
- IL13 concentration [4]: 2.52 ± 0.42 pg/mL
- IL15 concentration [4]: 3.37 ± 0.8 pg/mL
- IL17A concentration [4]: 4.04 ± 0.49 pg/mL
- IL18 concentration [4]: 155.77 ± 4.15 pg/mL
- IL21 concentration [4]: 2.84 ± 0.04 pg/mL
- IL22 concentration [4]: 8.39 ± 0.51 pg/mL
- IL23 concentration [4]: 7.43 ± 0 pg/mL
- IL27 concentration [4]: 8.3 ± 1.2 pg/mL
- IL31 concentration [4]: 3.05 ± 0.38 pg/mL
- IP-10/CXCL10 concentration [4]: 4407.56 ± 645.63 pg/mL
- LIF concentration [4]: 67.62 ± 3.58 pg/mL
- MCP1 concentration [4]: 18512.1 ± 3312.1 pg/mL
- MIP1 alpha concentration [4]: 88.49 ± 5.06 pg/mL
- MIP1 beta concentration [4]: 316.74 ± 9.29 pg/mL
- PDGF-BB concentration [4]: 4.75 ± 0.16 pg/mL
- PIGF-1 concentration [4]: 55.63 ± 3.23 pg/mL
- RANTES concentration [4]: 238.51 ± 23.12 pg/mL
- SCF concentration [4]: 4.07 ± 0.21 pg/mL
- SDF-1 alpha concentration [4]: 3464.97 ± 155.2 pg/mL
- TNF alpha concentration [4]: 9777.73 ± 966.87 pg/mL
- TNF beta concentration [4]: 4.96 ± 0.56 pg/mL
- VEGF-A concentration [4]: 1256.89 ± 60.57 pg/mL
- VEGF-D concentration [4]: 8.03 ± 0.93 pg/mL
- IL1 alpha concentration [5]: 0.26 ± 0.05 pg/mL
- IL1 beta concentration [5]: 0.98 ± 0.12 pg/mL
- IL2 concentration [5]: 2.4 ± 0.09 pg/mL
- IL4 concentration [5]: 5.34 ± 0.89 pg/mL
- IL5 concentration [5]: 2.88 ± 0.36 pg/mL
- IL6 concentration [5]: 28.84 ± 1.89 pg/mL
- IL7 concentration [5]: 3.44 ± 0.16 pg/mL
- IL8 concentration [5]: 257.62 ± 7.07 pg/mL
- IL9 concentration [5]: 3.98 ± 0.36 pg/mL
- IL10 concentration [5]: 0.43 ± 0.11 pg/mL
- IL12p70 concentration [5]: 2.15 ± 0.26 pg/mL
- IL13 concentration [5]: 1.26 ± 0.15 pg/mL
- IL15 concentration [5]: 3.2 ± 0.71 pg/mL
- IL17A concentration [5]: 1.22 ± 0.2 pg/mL
- IL18 concentration [5]: 6.54 ± 0.37 pg/mL
- IL21 concentration [5]: 2.5 ± 0.3 pg/mL
- IL22 concentration [5]: 8.08 ± 0.82 pg/mL
- IL23 concentration [5]: 6.43 ± 1.28 pg/mL
- IL27 concentration [5]: 11.9 ± 2.31 pg/mL
- IL31 concentration [5]: 3.7 ± 0.06 pg/mL
- IP-10/CXCL10 concentration [5]: 20.23 ± 0.48 pg/mL
- LIF concentration [5]: 22.66 ± 0.82 pg/mL
- MCP1 concentration [5]: 1306.83 ± 54.65 pg/mL
- MIP1 alpha concentration [5]: 2.75 ± 0.26 pg/mL
- MIP1 beta concentration [5]: 113.08 ± 4.82 pg/mL
- PDGF-BB concentration [5]: 1.93 ± 0.18 pg/mL
- PIGF-1 concentration [5]: 20.55 ± 1.16 pg/mL
- RANTES concentration [5]: 10.17 ± 0.54 pg/mL
- SCF concentration [5]: 1.91 ± 0.15 pg/mL
- SDF-1 alpha concentration [5]: 990.69 ± 48.87 pg/mL
- TNF alpha concentration [5]: 2.41 ± 0.7 pg/mL
- TNF beta concentration [5]: 4.42 ± 0.57 pg/mL
- VEGF-A concentration [5]: 598.11 ± 16.67 pg/mL
- VEGF-D concentration [5]: 3.55 ± 0.66 pg/mL
